Values joined by “and” are separate entries in the source; they are usually repeats but may differ in a detail not shown here. Identical values can stand only once.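 Following 48 hours of exposure in 96-well plates, responses at five concentrations were used to interpolate endpoints linearly. GI50 marks 50% less growth. TGI denotes the concentration required for complete inhibition of growth.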
Experiments:
Experiment in all cases: inhibition of tumour cell growth, NCI panel, 48 h
[1] = system: LOX IMVI melanoma
[2] = system: RXF 393 renal
[3] = system: CAKI-1 renal
[4] = system: BT-549 breast
[5] = system: MDA-MB-231 breast
[6] = system: OVCAR-5 ovarian
[7] = system: DU-145 prostate
[8] = system: SW-620 colon
[9] = system: NCI-H226 lung
[10] = system: OVCAR-4 ovarian
[11] = system: MOLT-4 leukemia
[12] = system: SK-MEL-5 melanoma
[13] = system: KM12 colon
[14] = system: A498 renal
[15] = system: UO-31 renal
[16] = system: SF-295 CNS
[17] = system: SR leukemia
[18] = system: HL-60(TB) leukemia
[19] = system: SK-MEL-28 melanoma
[20] = system: A549 NSCLC
[21] = system: MALME-3M melanoma
[22] = system: SK-OV-3 ovarian
[23] = system: NCI-H522 lung
[24] = system: M14 melanoma
[25] = system: HS 578T breast
[26] = system: SK-MEL-2 melanoma
[27] = system: 786-0 renal
[28] = system: COLO 205 colon
[29] = system: UACC-62 melanoma
[30] = system: SN12C renal
[31] = system: CCRF-CEM leukemia
[32] = system: HCT-116 colon
[33] = system: MCF7 breast
[34] = system: HCC-2998 colon
[35] = system: SF-539 CNS
[36] = system: SNB-19 CNS
[37] = system: T-47D breast
[38] = system: SF-268 CNS
[39] = system: K-562 leukemia
[40] = system: NCI-H23 lung
[41] = system: MDA-MB-435
[42] = system: EKVX NSCLC
[43] = system: NCI-H460 lung
[44] = system: RPMI-8226 leukemia
[45] = system: IGROV1 ovarian
[46] = system: ACHN renal
[47] = system: HCT-15 colon
[48] = system: NCI/ADR-RES ovarian
[49] = system: OVCAR-3 ovarian
[50] = system: OVCAR-8 ovarian
[51] = system: U251 CNS
[52] = system: HOP-62 NSCLC
[53] = system: PC-3 prostate
[54] = system: HT29 colon
[55] = system: UACC-257 melanoma
[56] = system: TK-10 renal
[57] = system: HOP-92 NSCLC

CO/N=C/C=C\C(=O)N/C=C/C[C@H]1/C=C/[C@H](O)/C=C\C=C\c2cccc(O)c2C(=O)O1 was tested, and the GI50 [1] was less than 10 nM, the TGI [1] was 16 nM and the GI50 [2] was 931 nM and 108 nM. For the same compound, the TGI [2] was 34500 nM and 12900 nM, the GI50 [3] was less than 10 nM and the GI50 [4] was < 19.7 nM and 24.7 nM. The TGI [4] was 5960 nM and 32900 nM, the GI50 [5] was less than 10 nM and the TGI [5] was 6640 nM. The GI50 [6] was < 11 nM and 32.6 nM, the TGI [6] was 14400 nM and > 54400 nM and the GI50 [7] was 81.6 nM and 41.3 nM. For the same compound, the TGI [7] was > 54000 nM and 22900 nM, the GI50 [8] was 43.3 nM and 62.8 nM and the TGI [8] was 12400 nM and 11300 nM. For the same compound, the GI50 [9] was 829 nM and 1310 nM, the TGI [9] was 13300 nM and 25800 nM and the GI50 [10] was 17300 nM and 2740 nM. For the same compound, the TGI [10] was greater than 100000 nM, the GI50 [11] was 43.9 nM and 79 nM and the TGI [11] was 14000 nM and 23500 nM. For the same compound, the GI50 [12] was less than 10 nM, the TGI [12] was < 11.3 nM and 20.4 nM and the GI50 [13] was 40.7 nM and 52 nM. For the same compound, the TGI [13] was 17200 nM and 15100 nM, the GI50 [14] was 722 nM and the TGI [14] was 5420 nM. For the same compound, the GI50 [15] was 61 nM and 92.5 nM, the TGI [15] was 455 nM and 1230 nM and the GI50 [16] was 22.9 nM and 19.8 nM. For the same compound, the TGI [16] was 117 nM and 84.5 nM, the GI50 [17] was less than 10 nM and the TGI [17] was 13800 nM and > 100000 nM. The GI50 [18] was 20.8 nM and 37.3 nM, the GI50 [19] was 303 nM and 309 nM and the TGI [19] was 13400 nM and 8660 nM. For the same compound, the GI50 [20] was 111 nM and 82.2 nM, the TGI [20] was greater than 100000 nM and the GI50 [21] was 114 nM and 89.9 nM. For the same compound, the TGI [21] was 5880 nM and 10600 nM, the TGI [22] was greater than 100000 nM and the GI50 [23] was 17.6 nM and 31.1 nM. For the same compound, the TGI [23] was 14300 nM and 7120 nM, the GI50 [24] was < 10 nM and 15.2 nM and the TGI [24] was 119 nM and 136 nM. The GI50 [25] was 454 nM and 199 nM, the TGI [25] was greater than 100000 nM and the GI50 [26] was 118 nM and 138 nM. The TGI [26] was 1060 nM and 1760 nM, the GI50 [27] was 54 nM and 125 nM and the TGI [27] was 15600 nM and 4030 nM. For the same compound, the GI50 [28] was 26.6 nM and 32.6 nM, the TGI [28] was 16000 nM and 14100 nM and the GI50 [29] was < 14.8 nM and 22 nM. For the same compound, the TGI [29] was 79.5 nM and 60.5 nM, the GI50 [30] was < 17.6 nM and 16.5 nM and the TGI [30] was greater than 72900 nM. For the same compound, the GI50 [31] was 62.1 nM and 62.2 nM, the TGI [31] was greater than 77000 nM and the GI50 [32] was < 10 nM and 20.7 nM. The TGI [32] was 12800 nM and 12900 nM, the GI50 [33] was 99.7 nM and 58.1 nM and the TGI [33] was > 100000 nM and 26700 nM. For the same compound, the GI50 [34] was 430 nM and 208 nM, the TGI [34] was 31000 nM and 7540 nM and the GI50 [35] was 46 nM and 51.4 nM. For the same compound, the TGI [35] was 4200 nM and 1830 nM, the GI50 [36] was 2810 nM and 3470 nM and the TGI [36] was greater than 100000 nM. For the same compound, the GI50 [37] was < 10 nM and 27.3 nM, the TGI [37] was 64700 nM and > 71700 nM and the GI50 [38] was 204 nM and 137 nM. For the same compound, the TGI [38] was > 100000 nM and 33800 nM, the GI50 [39] was 27.5 nM and 35.8 nM and the TGI [39] was greater than 100000 nM. The GI50 [40] was 2650 nM and 463 nM, the TGI [40] was > 100000 nM and 36100 nM and the GI50 [41] was 36.8 nM and 37 nM. For the same compound, the TGI [41] was 1960 nM and 482 nM, the GI50 [42] was 189 nM and 467 nM and the TGI [42] was greater than 100000 nM. For the same compound, the GI50 [43] was 36.4 nM and 58.3 nM, the TGI [43] was 11100 nM and 5340 nM and the GI50 [44] was 26.5 nM and 30.9 nM. For the same compound, the TGI [44] was 6800 nM and 2210 nM, the GI50 [45] was < 10 nM and 12.9 nM and the TGI [45] was > 49000 nM and 30900 nM. For the same compound, the GI50 [46] was 39 nM and 54.2 nM, the TGI [46] was 15700 nM and 15200 nM and the GI50 [47] was 62.4 nM and 44.7 nM. For the same compound, the TGI [47] was 9700 nM and 7340 nM, the GI50 [48] was 139 nM and 77.1 nM and the TGI [48] was greater than 100000 nM. For the same compound, the GI50 [49] was 457 nM and 653 nM, the TGI [49] was 23800 nM and 27300 nM and the GI50 [50] was 19.1 nM and 33 nM. The TGI [50] was greater than 100000 nM, the GI50 [51] was 100 nM and 28.7 nM and the TGI [51] was 62100 nM and 14700 nM. For the same compound, the GI50 [52] was 266 nM and 65.9 nM, the GI50 [53] was 94.6 nM and 47.7 nM and the TGI [53] was 81400 nM and > 54900 nM. The GI50 [54] was < 10 nM and 39.5 nM, the TGI [54] was 11200 nM and > 33700 nM and the GI50 [55] was 24.8 nM and 49.3 nM. The TGI [55] was 659 nM and 4170 nM, the TGI [56] was 45100 nM and > 100000 nM and the GI50 [57] was < 10 nM and 19 nM. The TGI [57] was 74.5 nM and 492 nM.
